We go through 35 compounds from ChEMBL document CHEMBL4842383 (J Med Chem, 2021).

Experiment [1] concerns the target Macrophage colony-stimulating factor 1 receptor (Homo sapiens, UniProt P07333). Put plainly: Inhibition of human recombinant GST-CSF1R (residues L534 to C972) expressed in Sf9 insect cells using poly(Glu,Tyr) as substrate incubated for 20 mins by ATP Kinase Glo assay. In general terms: Kinase-Glo reads ATP consumption through a luciferase reaction.
Experiment [2] addresses T1, Aurora kinase A (Homo sapiens) (UniProt O14965).
T1 sequence (whole entry): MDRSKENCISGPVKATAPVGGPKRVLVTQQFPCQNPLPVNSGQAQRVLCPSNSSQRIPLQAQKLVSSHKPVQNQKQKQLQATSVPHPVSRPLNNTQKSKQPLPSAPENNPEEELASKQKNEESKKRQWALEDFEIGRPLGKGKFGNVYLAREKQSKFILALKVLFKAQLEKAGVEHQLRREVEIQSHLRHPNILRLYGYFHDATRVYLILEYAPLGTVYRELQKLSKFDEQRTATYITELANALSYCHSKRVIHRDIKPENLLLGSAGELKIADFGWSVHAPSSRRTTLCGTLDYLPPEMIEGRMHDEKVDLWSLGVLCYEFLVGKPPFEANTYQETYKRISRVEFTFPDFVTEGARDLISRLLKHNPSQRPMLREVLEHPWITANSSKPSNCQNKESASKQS
Kind of experiment: Inhibition of recombinant GST-AURKA (residues Ser123 to Ser401) (unknown origin) expressed in Sf9 insect cells using tetra(-LRRASLG) peptide as substrate at 1 uM incubated for 90 mins by ATP Kinase Glo assay.

In another experiment the target is Aurora kinase B (Homo sapiens, UniProt Q96GD4). Kind of experiment: Inhibition of human recombinant full length GST-AURKB using tetra(-LRRASLG) peptide as substrate at 0.1 uM incubated for 20 mins by ATP Kinase Glo assay. It is filed as biochemical. The note with it: Sf9.
Aurora kinase B, sequence (Q96GD4 whole entry): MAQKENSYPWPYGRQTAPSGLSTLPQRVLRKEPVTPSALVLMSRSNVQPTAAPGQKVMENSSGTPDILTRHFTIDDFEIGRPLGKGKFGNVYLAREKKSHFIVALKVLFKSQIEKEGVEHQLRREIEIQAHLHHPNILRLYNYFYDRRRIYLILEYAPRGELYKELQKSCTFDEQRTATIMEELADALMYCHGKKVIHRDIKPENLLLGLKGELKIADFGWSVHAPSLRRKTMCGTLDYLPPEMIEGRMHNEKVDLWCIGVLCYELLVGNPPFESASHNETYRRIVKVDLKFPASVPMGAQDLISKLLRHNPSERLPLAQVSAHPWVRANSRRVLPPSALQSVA
The test system of the next experiment is BaF3. Put plainly: Antiproliferative activity against mouse BaF3 cells transfected with human ETV6-CSF1R assessed as reduction in cell viability measured after 72 hrs by MTS method. As to conditions: BaF3, 72 h. A general note: Tetrazolium assays rely on reduction of a dye to a coloured formazan, in cell work by metabolically active cells.
In a further experiment the test system is NFS-60. Put plainly: Antiproliferative activity against mouse NFS-60 cells transfected with human ETV6-CSF1R assessed as reduction in cell viability measured after 72 hrs by MTS method. It is filed as functional, cell-based. As to conditions: NFS-60, 72 h.
Another experiment concerns the target T2, Aurora kinase A (Homo sapiens, UniProt O14965).
T2 sequence (O14965 whole entry): T1 sequence (whole entry)
Kind of experiment: Inhibition of recombinant GST-AURKA (residues Ser123 to Ser401) (unknown origin) expressed in Sf9 insect cells using tetra(-LRRASLG) peptide as substrate incubated for 90 mins by ATP Kinase Glo assay.

SMILES strings stand for the structures.

Macrophage colony-stimulating factor 1 receptor, sequence (P07333 whole entry, the tested form may be a part): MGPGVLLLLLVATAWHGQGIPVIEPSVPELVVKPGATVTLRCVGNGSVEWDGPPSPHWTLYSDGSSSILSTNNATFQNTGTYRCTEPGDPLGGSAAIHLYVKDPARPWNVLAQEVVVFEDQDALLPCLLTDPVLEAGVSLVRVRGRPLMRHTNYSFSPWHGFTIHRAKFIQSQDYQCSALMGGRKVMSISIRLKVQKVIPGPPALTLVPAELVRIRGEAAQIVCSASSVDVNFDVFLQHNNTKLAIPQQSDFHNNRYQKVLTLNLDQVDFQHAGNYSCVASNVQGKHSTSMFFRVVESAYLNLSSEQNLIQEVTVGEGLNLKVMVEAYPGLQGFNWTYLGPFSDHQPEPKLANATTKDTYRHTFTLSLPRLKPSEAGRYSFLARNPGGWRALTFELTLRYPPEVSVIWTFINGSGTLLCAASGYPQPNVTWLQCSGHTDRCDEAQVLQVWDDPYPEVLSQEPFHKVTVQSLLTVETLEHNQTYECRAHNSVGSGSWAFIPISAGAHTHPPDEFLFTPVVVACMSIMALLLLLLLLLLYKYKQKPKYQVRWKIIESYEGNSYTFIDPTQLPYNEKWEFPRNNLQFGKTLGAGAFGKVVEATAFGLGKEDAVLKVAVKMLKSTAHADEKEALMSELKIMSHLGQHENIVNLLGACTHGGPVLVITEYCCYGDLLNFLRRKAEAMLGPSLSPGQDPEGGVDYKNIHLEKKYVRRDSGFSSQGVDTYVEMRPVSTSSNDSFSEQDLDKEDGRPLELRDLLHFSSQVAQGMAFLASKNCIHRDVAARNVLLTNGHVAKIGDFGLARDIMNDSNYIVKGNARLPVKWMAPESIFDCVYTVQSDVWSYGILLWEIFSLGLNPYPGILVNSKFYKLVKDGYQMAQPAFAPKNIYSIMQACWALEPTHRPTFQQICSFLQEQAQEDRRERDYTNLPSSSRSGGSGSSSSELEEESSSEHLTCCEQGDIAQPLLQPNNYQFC

The term IC50 denotes the midpoint of a concentration-inhibition curve. The inhibition is the share of the control response that was lost under treatment. For the compound `O=C(Nc1ccccc1)Nc1ccc(Oc2ncnc3ccc(N4CCCC4)cc23)cc1`, in experiment [1], the IC50 is over 10 nM. Further, the inhibition in experiment [2] was found to be 11%.

Consider `CN(C)c1ccc2c(Nc3ccc(NC(=O)Nc4ccccc4)cc3)ncnc2c1`, for which, in experiment [1], the IC50 stood at 243 nM. For the same compound, the inhibition in experiment [2] was 33%; at Aurora kinase B, 27%.

As for `CNc1ccc2c(Oc3ccc(NC(=O)Nc4ccccc4)cc3)ncnc2c1`, in experiment [1], the IC50 came to 44 nM. Besides, the figures for the inhibition (in experiment [2]; at Aurora kinase B) were 57% and 76%, respectively.

For the compound `O=C(Nc1ccccc1)Nc1ccc(Oc2ncnc3cc(N4CCCC4)ccc23)cc1`, the IC50 in experiment [1] came out at 63 nM. Moreover, the inhibition (in experiment [2]; at Aurora kinase B) was 43% in each case.

Regarding `COc1ccc2c(Nc3ccc(NC(=O)Nc4ccccc4)cc3)ncnc2c1`, the IC50 in experiment [1] was found to be 124 nM. Further, the inhibition worked out at 56% in experiment [2] and 24% on Aurora kinase B.

As to `CN(C)c1ccc2ncnc(Oc3ccc(NC(=O)Nc4ccccc4)cc3)c2c1`, in experiment [1], the IC50 was determined as 41 nM. For the same compound, the inhibition in experiment [2] came out at 29%.

For orientation: EC50 means the midpoint of the concentration-response curve. For `COc1ccc(Cl)cc1NC(=O)Nc1ccc(Oc2ncnc3cc(N(C)C)ccc23)cc1`, the IC50 in experiment [1] amounted to 36 nM. Further, the inhibition came to 70% in experiment [2] and 41% on Aurora kinase B. The values for the EC50 with BaF3 and in the experiment on NFS-60 were 86 nM and 141 nM, respectively.

Take `CN(C)c1ccc2c(Oc3ccc(NC(=O)NCCc4ccccc4)cc3)ncnc2c1`: the IC50 in experiment [1] turned out to be 15.4 nM. Besides, the inhibition (in experiment [2]; at Aurora kinase B) was 35% in each case. Also, the figures for the EC50 with BaF3 and in the experiment on NFS-60 were 82 nM and 162 nM, respectively.

Turning to `CN(C)c1ccc2c(Oc3ccc(NC(=O)Nc4ccc(C(F)(F)F)cc4)cc3)ncnc2c1`, the IC50 in experiment [1] turned out to be 64 nM. In addition, the values for the inhibition (in experiment [2]; on Aurora kinase B) were 46% and 37%, respectively. The EC50 in the experiment on BaF3 is 49 nM.

Turning to `CN(C)c1ccc2c(Oc3ccc(NC(=O)NCc4cccnc4)cc3)ncnc2c1`, in experiment [1], the IC50 amounted to 79 nM. The results for the inhibition (in experiment [2]; at Aurora kinase B) were 1% and 15%, respectively. Moreover, the figures for the concentration for a half-maximal effect (EC50) in the experiment with BaF3 and with NFS-60 were 87 nM and 152 nM, respectively.

Turning to `CN(C)c1ccc2c(Oc3ccc(NC(=O)NCc4ccc(C#N)cc4)cc3)ncnc2c1`, in experiment [1], the IC50 was found to be 50 nM. Also, in experiment [2], the inhibition was 5%. The EC50 is 14.1 nM in the experiment on BaF3 and 23 nM with NFS-60.

On to `CN(C)c1ccc2c(Oc3ccc(NC(=O)NCc4ccc(S(N)(=O)=O)cc4)cc3)ncnc2c1`, for which the IC50 in experiment [1] turned out to be 16.3 nM. Further, the figures for the inhibition (in experiment [2]; at Aurora kinase B) were 2% and 62%, respectively. The EC50 in the experiment with BaF3 stood at 662 nM; with NFS-60, 1090 nM.

For the compound `CN(C)c1ccc2c(Oc3ccc(NC(=O)Nc4cccc(Cl)c4)cc3)ncnc2c1`, the IC50 in experiment [1] stood at 10.5 nM. Also, the inhibition in experiment [2] came to 71%; at Aurora kinase B, 82%. In addition, the values for the EC50 with BaF3 and with NFS-60 were 20 nM and 55 nM, respectively.

Take `CN(C)c1ccc2c(Oc3ccc(NC(=O)NCc4nccs4)cc3)ncnc2c1`: in experiment [1], the IC50 is 24 nM. The figures for the inhibition (in experiment [2]; on Aurora kinase B) were 2% and 19%, respectively. The EC50 in the experiment with BaF3 worked out at 318 nM; with NFS-60, 202 nM.

On to `CN(C)c1ccc2c(Oc3ccc(NC(=O)Nc4ccccc4Cl)cc3)ncnc2c1`, for which, in experiment [1], the IC50 was found to be 15.4 nM. In addition, the inhibition in experiment [2] came to 43%; at Aurora kinase B it was 79%. Besides, the concentration for a half-maximal effect (EC50) with BaF3 was 66 nM; with NFS-60, 145 nM.

For the compound `COc1ccccc1NC(=O)Nc1ccc(Oc2ncnc3cc(N(C)C)ccc23)cc1`, the IC50 in experiment [1] is 30 nM. The values for the inhibition (in experiment [2]; at Aurora kinase B) were 24% and 53%, respectively. Moreover, the EC50 in the experiment on BaF3 was 116 nM; in the experiment with NFS-60, 144 nM.

As to `COc1ccc(NC(=O)Nc2ccc(Oc3ncnc4cc(N(C)C)ccc34)cc2)cc1Cl`, the IC50 in experiment [1] was 11.1 nM. Besides, the values for the inhibition (in experiment [2]; on Aurora kinase B) were 53% and 44%, respectively. Also, the EC50 with BaF3 stood at 43 nM; in the experiment with NFS-60, 53 nM.

On to `O=C(Nc1ccccc1)Nc1ccc(Oc2ncnc3cc(F)ccc23)cc1`, for which the IC50 in experiment [1] stood at 753 nM. Besides, the figures for the inhibition (in experiment [2]; on Aurora kinase B) were 13% and 27%, respectively.

On to `CN(C)c1ccc2c(Oc3ccc(NC(=O)Nc4ccccc4)cc3)ncnc2c1`, for which, in experiment [1], the IC50 was determined as 21 nM. In addition, the inhibition stood at 40% in experiment [2] and 61% on Aurora kinase B. Besides, the EC50 was 66 nM in the experiment with BaF3 and 92 nM with NFS-60.

For `CC(NC(=O)Nc1ccc(Oc2ncnc3cc(N(C)C)ccc23)cc1)c1nccs1` (stereo not drawn), the concentration for half-maximal inhibition (IC50) in experiment [1] came out at 1.41 nM. Further, the inhibition in experiment [2] is 6%. For the same compound, the EC50 in the experiment with BaF3 turned out to be 158 nM.

For `COc1cccc(NC(=O)Nc2ccc(Oc3ncnc4cc(N(C)C)ccc34)cc2)c1`, the IC50 in experiment [1] amounted to 11.6 nM. Besides, the values for the inhibition (in experiment [2]; on Aurora kinase B) were 46% and 79%, respectively. Further, the EC50 came out at 65 nM with BaF3 and 108 nM in the experiment with NFS-60.

Consider `COc1ccc2c(NCCc3cnc(NC(=O)Nc4cccc(Cl)c4)s3)ncnc2c1`, for which the half-inhibitory concentration (IC50) in experiment [1] was 112 nM; at Aurora kinase A it was 9 nM. On Aurora kinase B, the inhibition came to 89%.

Regarding `CN(C)c1ccc2c(Oc3ccc(NC(=O)Nc4ccc(Cl)cc4)cc3)ncnc2c1`, the IC50 in experiment [1] was determined as 164 nM. For the same compound, the inhibition in experiment [2] is 70%; at Aurora kinase B it was 50%. The EC50 with BaF3 is 18.4 nM; in the experiment with NFS-60, 25 nM.

As for `COc1cc(Oc2ccnc3cc(OC)c(OC)cc23)ccc1NC(=O)NC(C)c1nccs1` (stereo not drawn), the inhibition in experiment [2] came out at 42%; on Aurora kinase B, 47%. For the same compound, the EC50 was found to be 76 nM in the experiment with BaF3 and 77 nM in the experiment with NFS-60.

Take `Nc1ccc2c(Oc3ccc(NC(=O)Nc4ccccc4)cc3)ncnc2c1`: the IC50 in experiment [1] turned out to be 58 nM. Moreover, the inhibition was determined as 47% in experiment [2] and 74% on Aurora kinase B.

For the compound `CN(C)c1ccc2c(Oc3ccc(NC(=O)NCc4c(F)c(F)c(F)c(F)c4F)cc3)ncnc2c1`, the IC50 in experiment [1] stood at 18.6 nM. Besides, the inhibition came out at 3% in experiment [2] and 34% at Aurora kinase B. For the same compound, the 50% effective concentration (EC50) with BaF3 turned out to be 108 nM.

For `CN(C)CCCOc1ccc2c(NCCc3cnc(NC(=O)Nc4cccc(Cl)c4)s3)ncnc2c1`, in experiment [1], the IC50 came to 19 nM.

On to `COc1cc2ncnc(Oc3ccc(NC(=O)Nc4ccccc4)cc3)c2cc1OC`, for which the half-maximal inhibitory concentration (IC50) in experiment [1] was found to be 30 nM. In addition, in experiment [2], the inhibition was 46%.

With `CN(C)c1ccc2c(Oc3ccc(NC(=O)NCc4ccccc4)cc3)ncnc2c1`, the half-maximal inhibitory concentration (IC50) in experiment [1] was 16.3 nM. Besides, the inhibition (in experiment [2]; on Aurora kinase B) was 7% throughout. Moreover, the results for the concentration giving a half-maximal response (EC50) in the experiment with BaF3 and in the experiment on NFS-60 were 85 nM and 58 nM, respectively.

As to `COc1ccc(CNC(=O)Nc2ccc(Oc3ncnc4cc(N(C)C)ccc34)cc2)cc1OC`, in experiment [1], the IC50 was determined as 83 nM. The inhibition in experiment [2] worked out at 4%. Besides, the EC50 with BaF3 amounted to 133 nM.

In the case of `COc1ccc2c(Oc3ccc(NC(=O)Nc4ccccc4)cc3)ncnc2c1`, the IC50 in experiment [1] was found to be 76 nM. In addition, the inhibition in experiment [2] stood at 36%; on Aurora kinase B it was 48%.

Take `CN(C)c1ccc2c(Oc3ccc(NC(=O)Nc4cccc(C(F)(F)F)c4)cc3)ncnc2c1`: the IC50 in experiment [1] came to 64 nM. For the same compound, the results for the inhibition (in experiment [2]; on Aurora kinase B) were 35% and 60%, respectively. In addition, in the experiment with BaF3, the EC50 was found to be 45 nM.

In the case of `O=C(Nc1cccc(Cl)c1)Nc1ncc(CCNc2ncnc3cc(F)ccc23)s1`, the IC50 is over 10 nM in experiment [1] and 9 nM on Aurora kinase A. In addition, the inhibition on Aurora kinase B is 83%.

As for `CN(C)c1ccc2c(Oc3ccc(NC(=O)NCc4ccc(C(F)(F)F)cc4)cc3)ncnc2c1`, the IC50 in experiment [1] turned out to be 91 nM. For the same compound, the inhibition amounted to 16% in experiment [2] and 25% on Aurora kinase B. Besides, the EC50 with BaF3 turned out to be 152 nM; in the experiment on NFS-60, 97 nM.

Consider `CN(C)c1ccc2c(Oc3ccc(NC(=O)NCc4ccn(C)n4)cc3)ncnc2c1`, for which the IC50 in experiment [1] was 204 nM. The inhibition in experiment [2] came out at 58%. Besides, the EC50 in the experiment on BaF3 stood at 167 nM.
